The record followed here is US10639300B2, “Compositions and methods for treating nasal and paranasal mucosa diseases with nicotinic acetylcholine receptor agonists” (priority 2016, dated 2020).

Structures are written as SMILES.

For experiment [1], the system named is patient with chronic nasal congestion. The note with it: aqueous solution 1.00 mg/ml with salicylic acid 0.5 mg/ml, two drops in each nostril, three or four times a day, follow-up one month later.
Source text: The patient also complained of frequent headaches in the forehead region.
The dose was repeated three or four times a day. […] It was felt by the clinician that the possible causative agent/s for the chronic nasal congestion may have been external environment factors such as cold, dust, air pollution, second-hand cigarette smoke and/or seasonal allergens such as pollens.
In another experiment the test system is human cancer cells. The note with it: experimental cultures of human cancer cells; concentration 5 mg/ml.
Experiment [2] has as its system patient with nose bleeding and atrophy of the nasal cavity mucous membranes. The note with it: person, aqueous solution 2.0 mg/ml with salicylic acid 0.5 mg/ml, one to two drops, three to four times a day. The method, then:
The patient was a person with a history of nose bleeding in small quantities and sensation of dryness in the nose and eyes. The patient also reported a long history of joint pain, but no other remarkable antecedents.
The treatment for patient two began with an aqueous solution of (S)-(1-methyl-2-pyrrolidinyl)-pyridine at a concentration of 2.0 mg/ml and salicylic acid at a concentration of 0.5 mg/ml at a dose of one to two drops (about 50 μL per drop) followed by forced inhalation. The dose was repeated three to four times a day.

Consider `CN1CCC[C@H]1c1cccnc1` [(S)-(1-methyl-2-pyrrolidinyl)-pyridine], for which, in experiment [1], the “patient-reported improvement of symptoms (100% being what the patient considered normal)” value came out at 90%. For the same molecule, the inhibition of proliferation in the experiment on human cancer cells was 95%. Besides, in experiment [2] (follow-up one month later), the “nasal bleeding (patient report)” value was “ceased”. Also, in experiment [2] (since the first week of treatment), the “sensation of dryness in the nose and eyes (patient report)” value is given as “diminished markedly”.
